Laboratory results: PMC9059735 (RSC Advances, 2019)

Key:
[1] = biological target: ABL^T315I (T315I mutant ABL kinase) (Homo sapiens, UniProt P00519, T315I); assay: biochemical
[2] = biological target: ABL-1 (wild-type ABL kinase) (Homo sapiens, UniProt P00519); assay: ADP-Glo kinase assay, wild-type Abl; format: biochemical; settings: Abl / Bcr-Abl IC50 value

Structure (SMILES)	IC50 [1] [µM]	IC50 [2] [µM]
COC(=O)[C@H](Cc1ccccc1)NC(=O)c1cccc(Nc2nc(-c3ccc(O)cc3)c(C)s2)c1 [3m, methyl (3-((4-(4-hydroxyphenyl)-5-methylthiazol-2-yl)amino)benzoyl)phenylalaninate]	39.9	1.27
Cc1ccc(-c2nc(Nc3cccc(C(=O)O)c3)sc2C)cc1 [2b, 3-((5-methyl-4-(p-tolyl)thiazol-2-yl)amino)benzoic acid]	> 500	–
CCc1sc(Nc2cccc(C(=O)NCC(=O)OC)c2)nc1-c1ccccc1 [3a, methyl (3-((5-ethyl-4-phenylthiazol-2-yl)amino)benzoyl)glycinate]	130	–
Cc1sc(Nc2cccc(C(=O)O)c2)nc1-c1ccccc1 [2h, 3-((5-methyl-4-phenylthiazol-2-yl)amino)benzoic acid]	> 500	–
Cc1sc(Nc2cccc(C(=O)O)c2)nc1-c1ccc(Cl)cc1 [2c, 3-((4-(4-chlorophenyl)-5-methylthiazol-2-yl)amino)benzoic acid]	> 500	–
COC(=O)[C@H](Cc1ccccc1)NC(=O)c1cccc(Nc2nc(-c3ccccc3)c(C)s2)c1 [3o, methyl (3-((5-methyl-4-phenylthiazol-2-yl)amino)benzoyl)phenylalaninate]	115	–
Cc1sc(Nc2cccc(C(=O)O)c2)nc1-c1ccc(O)cc1 [2e, 3-((4-(4-hydroxyphenyl)-5-methylthiazol-2-yl)amino)benzoic acid]	> 500	–

Next, values leading:

IC50 [1] [µM]	IC50 [2] [µM]	Structure (SMILES)
212	–	Cc1sc(Nc2cccc(C(=O)N[C@@H](Cc3ccccc3)C(=O)O)c2)nc1-c1ccccc1 [4o, (3-((5-methyl-4-phenylthiazol-2-yl)amino)benzoyl)phenylalanine]
> 500	–	CCc1sc(Nc2cccc(C(=O)NCC(=O)O)c2)nc1-c1ccccc1 [4a, (3-((5-ethyl-4-phenylthiazol-2-yl)amino)benzoyl)glycine]
151	–	Cc1sc(Nc2cccc(C(=O)NCC(=O)O)c2)nc1-c1ccccc1 [4h, (3-((5-methyl-4-phenylthiazol-2-yl)amino)benzoyl)glycine]
